According to patent publication US20220229063A1, “FLUORESCENT COMPOUND WITH CYANURIC-HYDROXIDE AND PREPARATION METHOD THEREOF” (Bioacts Corporation, priority 2021, published 2022):

Experiment: Comparison of fluorescent values at the same absorption wavelength of compound 2-1 and compound 2-2
Type: physicochemical
Protocol: In order to confirm an increase in fluorescent intensity by introducing triazine substituted with a hydroxyl group shown in the compound 3-3 as a linker, the following comparative experiment was conducted.
The compound 2-1 was dissolved in DMF at a concentration of 10 mg/ml and then 5 μl of the compound 2-1 was added to 5 ml of PBS at room temperature, and 5 μl of the compound 2-2 was added to 5 mL of PBS at the same concentration in the same manner. The absorption was measured by adding 2 mL of two samples by 1 mL of PBS and the fluorescence was measured even after diluting the compounds.
In FIGS. 1 and 2, the numerical values of ½ and ¼ indicate that the initial concentration was diluted.

## CC1(CCCCCC(=O)NCCCNc2nc(O)nc(NCCCCCC(=O)ON3C(=O)CCC3=O)n2)C(/C=C/C=C/C=C2/N(CCCS(=O)(=O)O)c3ccc(S(=O)(=O)O)cc3C2(C)C)=[N+](CCCS(=O)(=O)O)c2ccc(S(=O)(=O)[O-])cc21 (centres unmarked) [Compound 2-2]
Compared to compound 2-1, at a concentration representing the same absorption intensity, DMF stock 10 mg/ml diluted in PBS, room temperature
  increase in fluorescence intensity: ≥ 162%
Single dye form, in PBS, initial concentration and 1/2, 1/4 dilutions
  fluorescence intensity as compared to the compound 2-1: the higher the concentration, the higher the fluorescence intensity
